{"source": "patent US7132287B2", "about": "“Method for neural stem cell differentiation using 5HT-1A agonists” (Psychiatric Genomics, Inc., priority 2001, dated 2006)", "key": {"5HT1A receptor [1]": {"target": "T1, 5HT1A receptor (Homo sapiens, UniProt P08908)", "T1 sequence (P08908 1-422)": "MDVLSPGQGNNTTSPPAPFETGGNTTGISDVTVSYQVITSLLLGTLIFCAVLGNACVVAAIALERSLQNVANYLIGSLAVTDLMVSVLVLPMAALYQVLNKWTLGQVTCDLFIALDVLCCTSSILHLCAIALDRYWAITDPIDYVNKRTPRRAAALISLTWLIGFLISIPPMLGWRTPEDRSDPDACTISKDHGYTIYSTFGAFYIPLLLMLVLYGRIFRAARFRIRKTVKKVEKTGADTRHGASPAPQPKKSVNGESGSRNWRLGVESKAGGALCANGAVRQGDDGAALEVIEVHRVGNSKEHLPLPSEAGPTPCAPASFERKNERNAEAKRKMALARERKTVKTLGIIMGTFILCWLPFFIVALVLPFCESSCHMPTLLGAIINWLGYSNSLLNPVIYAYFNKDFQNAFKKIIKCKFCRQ", "conditions": "cited from earlier work"}, "5HT1A receptor [2]": {"target": "T1, 5HT1A receptor", "conditions": "cited from earlier work", "remark": "listed apart in the source"}, "[3]": {"test_system": "cerebellar neural stem cells", "quoted_text": "Cells were treated with the drugs as shown in the presence or absence of the 5HT 1A antagonist WAY 100635 (10 nM), or vasoactive intestinal peptide\nDrug treatments were started on the next day. Optimal concentrations were as follows: bFGF: 10 ng/ml; BDNF (R&D Systems, Minneapolis, Minn.): 20 ng/ml; buspirone (Sigma): 100–1000 nM; or Serotonin (Sigma): 5–10 μM; buspirone or serotonin and the 5HT1A antagonist WAY100635 (Sigma): 10 nM. The WAY 100635 antagonist compound was used simultaneously with buspirone or serotonin in the blocking experiments. Positive and negative control cultures were those treated with BDNF and FGF alone, respectively.\nUntreated cells were used as a negative control."}, "adult rat hippocampus": {"test_system": "adult rat hippocampus", "conditions": "Mahlberg et al., preliminary data; cited from earlier work"}, "[4]": {"target": "T2, 5-HT1A receptors over dopamine D2 receptors (Homo sapiens, UniProt P08908)", "T2 sequence (P08908 1-422)": "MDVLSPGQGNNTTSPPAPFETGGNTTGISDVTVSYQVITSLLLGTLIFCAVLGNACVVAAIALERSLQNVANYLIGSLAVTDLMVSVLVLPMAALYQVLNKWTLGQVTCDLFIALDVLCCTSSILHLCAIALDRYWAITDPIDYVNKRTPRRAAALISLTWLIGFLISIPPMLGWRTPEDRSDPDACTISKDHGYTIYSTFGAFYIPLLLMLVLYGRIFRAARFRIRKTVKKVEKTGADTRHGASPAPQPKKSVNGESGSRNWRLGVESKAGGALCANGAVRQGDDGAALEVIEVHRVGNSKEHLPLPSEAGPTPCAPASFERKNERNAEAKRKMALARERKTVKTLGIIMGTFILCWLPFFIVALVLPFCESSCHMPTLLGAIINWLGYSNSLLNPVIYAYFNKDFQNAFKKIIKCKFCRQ", "conditions": "compared to buspirone; cited from earlier work"}, "cerebellar stem cells": {"test_system": "cerebellar stem cells", "experiment": "Neuronal differentiation of cerebellar stem cells (TuJ1 positive cells)", "type": "cell-based, rat", "conditions": "FIG. 2, lane 5, serotonin 5 μM; untreated control less than 20%", "description": "Isolation and quantitation of cerebellar stem cells. Neural stem cells were isolated from rat embryos (obtained from Taconic) at the 19th day of gestation (E19). The rats were sacrificed by inhalation of excess carbon dioxide. The abdomen of the rat was cleaned with 70% ethanol and the uterus was removed quickly and aseptically on the bench top. The uterus was placed in ice cold PBS (GIBCO Cat. # 20012-027) in a 200-ml beaker.\nThe cerebellar tissue was dissected under a microscope according to the following procedure and collected in a 15-ml tube containing HBSS on ice. The dissection should be completed in 1–2 hours (optimally) and the pH of the HBSS should remain neutral. First, the neck of the embryos was severed towards the bottom and the heads were collected in cold PBS. Next, the skin and scalp was removed from neck and head of the embryo. The brain, including the cerebral cortex, midbrain, cerebellum and some of the spinal cord, was removed by dissection under a microscope and transfered into a clean dish with fresh, cold PBS. The cerebellar region was dissected and cleaned of extraneous tissue, including removal of the meninges, and transferred into cold HBSS in a clean 15 ml tube.\nThe tube containing the cerebellar tissue was centrifuged at 1,000 RPM for 2 min at 15 C., followed by slow, careful aspiration of the HBSS supernatant (care should be taken to avoid aspirating tissue). (It is best to limit the centrifugation steps as much as possible.) About 1 to 3 ml of DMEM/F12/N2 medium (see below) was immediately added to the remaining tissue; the volume of medium depends on the quantity of the dissected tissue. The tissue was gently triturated about 8 to 10 times using a P-1000 Pipetteman until the tissue was dissociated (as evidenced by cloudy solution), then the tube was incubated in the hood for 5 minutes at room temperature to permit settlement of small particles of undissociated tissue. The supernatant was then transferred into a fresh tube, taking care to avoid the smaller particles of tissue that remained at the bottom of the tube.\nPlating and expansion of cerebellar stem cells. The triturated cell suspension of E19 rat cerebellum was seeded into pre-coated 10 cm dishes at 2×10^6 cells per dish. This is denoted as the P0 culture (passage 0). The cells were grown in 5 ml of DMEM/F12/N2 supplemented with 25 mg/L insulin and 10 ng/ml bFGF at 37 C, 5% CO2 and 90% humidity.\nCells were fed daily with 10 ng/ml bFGF. The medium was changed one day after the cells were seeded, and thereafter every other day. On about day 4 of the culture, or when cells reached 70% confluence, the culture was passaged (see “Passage of cerebellar stem cells” below) and seeded into 10 cm dishes at an initial density of 2×10^6 cells per dish. This is denoted as the P1 culture (passage 1). The passaged cells at P1 were grown in DMEM/F12/N2 medium supplemented with 25 mg/L insulin and 10 ng/ml bFGF. The medium was changed every other day.\nAfter two days of culture, some cells were passaged into a P2 culture, and some were seeded in 12-well tissue culture plates for experimental use. One ml of DMEM/F12/N2 medium was used per well of a 12-well plate at 2×10^4 cells per well. Experimental treatments were initiated the day after passage.\n(§1) Drug treatments. Stem cells obtained as described above were treated with drugs and subjected to differentiation protocols in the second passage. Cells were plated at a density of 1×10^4 cells per well of a 12-well petridish (Falcon).\nDrug treatments were started on the next day. […] The WAY 100635 antagonist compound was used simultaneously with buspirone or serotonin in the blocking experiments."}, "[5]": {"test_system": "cortical neural stem cells", "experiment": "Neuronal differentiation of cortical neural stem cells (β tubulin III / TuJ-1 immunofluorescence)", "type": "cell-based, rat", "conditions": "6 days", "description": "Isolation of cortical and striatal stem cells. Timed pregnant Sprague Dawley rats obtained from Taconic at embryonic age E14-E15 were sacrificed as described above and the uterus removed and placed in ice cold PBS in a 10 cm petridish. After rinsing the uterus in PBS, embryos were removed from the uterus, rinsed in PBS and collected in cold HBSS (buffered with HEPES and sodium bicarbonate) in a 10 cm petridish and placed on ice.\nThe cortex and striatum was dissected under a microscope and collected in a 15 ml tube of HBSS, on ice. Removal of meninges is not possible at this age, and no attempt was made to do so. If the dissected tissue was in large enough chunks and settle to the bottom of the tube, no centrifugation was performed. Alternatively, the tube was centrifuged at 1000 rpm for 5 minutes to pellet the tissue. Following centrifugation, the 15 ml tube containing the tissue was sprayed with 70% ethanol and taken into the sterile hood.\nThe HBSS was aspirated and replaced with 10 ml of DMEM/F12. The tissue was collected at the bottom of the tube by gravity or centrifugation, medium was aspirated, and 1 ml of DMEM/F12 was to the tissue. Cells were dissociated by trituration as described above, followed by addition of 5 ml of DMEM/F12 and a second round of trituration. […] The tubes were placed standing 5–10 minutes in the hood to allow larger particles and meninges to settle. While the meninges were settling, a cell count was made. 10 μl of the cell suspension is diluted with trypan blue and counted in a hemocytometer. Cells were counted in the four outer chambers with the larger squares, and cell count calculated assuming that the volume enclosed in each of the chambers was […].\nPlating, expansion and passaging of cortical and striatal stem cells A generous amount of the triturated cell suspension was left in the original 15 ml tube to avoid fibroblast contamination in cultures. About 4–5 ml of the 6 ml of cells suspension was used for plating. Cells were plated at a concentration of approximately 1×10^6 per 10 cm dish. This culture is designated P0 (passage 0).\nFollowing plating cells were expanded for about 3–4 days. The cultures were never permitted to reach more than 70% confluency. Cultures were then passaged as follows: 5 ml of HBSS was added to each 10 cm dish and the cells incubated at 37° C. for 15–45 minutes, or until sufficient numbers of the stem cells were rounded up. It is not expected that all cells in the culture will round up as there are several cell types in the culture at P0. The pH of the HBSS should be neutral at all times during this incubation. Cells were then removed from the dish by pipetting with a 5 ml pipette, or by scraping with a policeman, collected in a 15 or 50 ml conical tube, and centrifuged at 1000 g for 5 minutes. Cells were gently re-suspended in medium, counted, and plated at a density of about 1×10^6 per 10 cm dish.\nas §1\nDrug treatments were started on the next day. […] The WAY 100635 antagonist compound was used simultaneously with buspirone or serotonin in the blocking experiments. Positive and negative control cultures were those treated with BDNF and FGF alone, respectively.\nCells were treated with the designated concentrations of drugs or combinations thereof, daily, and were fed every alternate day with fresh medium. Experiments were maintained for about 6–10 days in most cases."}}, "note": "Where “and” joins values, the source holds several entries; their conditions need not be identical. Equal entries are not always repeated."}
{"molecule": "COc1ccc2[nH]cc(CCN(C)C)c2c1", "note": "[5-methoxy-N,N-dimethyltryptamine]", "values": [{"measurement": "affinity for the 5HT1A receptor", "setting": "5HT1A receptor [1]", "value": "high affinity"}]}
{"molecule": "CCCN(CCC)[C@@H]1CCc2ccc3[nH]c(C#N)cc3c2C1", "note": "[U-92016A]", "values": [{"measurement": "intrinsic activity as 5-HT1A receptor agonist", "setting": "5HT1A receptor [2]", "value": "exceptionally high degree of intrinsic activity"}]}
{"molecule": "COc1ccccc1N1CCN(CCN(C(=O)C2CCCCC2)c2ccccn2)CC1", "note": "[WAY100635, N-[2-[4-(2-Methoxyphenyl)-1-piperazinyl]ethyl]-N-2-pyridinylcyclohexanecarboxamide]", "values": [{"measurement": "effect of antagonist on buspirone-induced neuronal differentiation", "setting": "[3]; WAY100635 10 nM added simultaneously with buspirone 500 nM, FIG. 2 lane 4", "value": "inhibited neuronal differentiation"}, {"measurement": "effect of antagonist on serotonin-induced neuronal differentiation", "setting": "[3]; WAY100635 10 nM added simultaneously with serotonin 5 μM, FIG. 2 lane 6", "value": "inhibited neuronal differentiation"}, {"measurement": "effect of antagonist on vasoactive intestinal peptide-induced neuronal differentiation", "setting": "[3]; WAY100635 10 nM added to VIP-treated cells, FIG. 2 lane 8", "value": "did not prevent or inhibit neuronal differentiation"}]}
{"molecule": "CNCCC(Oc1ccc(C(F)(F)F)cc1)c1ccccc1", "note": "(centres unmarked) [fluoxetine]", "values": [{"measurement": "neurogenesis in adult rat hippocampus", "setting": "adult rat hippocampus", "value": "increases neurogenesis"}]}
{"molecule": "CC1(C)CC(=O)N(CCCCN2CCN(c3ncccn3)CC2)C(=O)C1", "note": "[gepirone]", "values": [{"measurement": "selectivity for 5-HT1A receptors over dopamine D2 receptors", "setting": "[4]", "value": "much greater selectivity"}]}
{"molecule": "NCCc1c[nH]c2ccc(O)cc12", "note": "[serotonin, 5-hydroxytryptamine]", "values": [{"measurement": "differentiation of neurons", "setting": "cerebellar stem cells", "value": 60, "unit": "%"}]}
{"molecule": "bFGF: recombinant human basic fibroblast growth factor (R&D Systems), mitogenic growth factor; negative control", "values": [{"measurement": "Total No. of Cells", "setting": "[5]; 10 ng/ml bFGF", "value": "7330 and 10210"}, {"measurement": "No. Fluorescent Cells", "setting": "[5]; 10 ng/ml bFGF, TuJ-1 staining", "value": "33 and 65"}]}
{"molecule": "BDNF: brain-derived neurotrophic factor (R&D Systems), a known neuronal differentiation factor; positive control (protein, UniProt P23560 19-247, looked up) Neurotrophic factor BDNF …: APMKEANIRGQGGLAYPGVRTHGTLESVNGPKAGSRGLTSLADTFEHVIEELLDEDQKVRPNEENNKDADLYTSRVMLSSQVPLEPPLLFLLEEYKNYLDAANMSMRVRRHSDPARRGELSVCDSISEWVTAADKKTAVDMSGGTVTVLEKVPVSKGQLKQYFYETKCNPMGYTKEGCRGIDKRHWNSQCRTTQSYVRALTMDSKKRIGWRFIRIDTSCVCTLTIKRGR", "values": [{"measurement": "Total No. of Cells", "setting": "[5]; 20 ng/ml BDNF", "value": "624 and 1006"}]}
